Earlier results as cited in patent US20190350829A1, “AN ANTIMICROBIAL COMPOSITION” (Conopco, Inc., d/b/a UNILEVER, priority 2016, published 2019).
Read-outs that look alike come from different tables or passages of the source.

pKa: 4.89
pKa (listed as methyl caprylic acid): 4.93
Compound: CCCCC(C)CCC(=O)O (centres unmarked) [4-methyl octanoic acid]
